Assays:
Human 5-HT Transporter = target: T1, Human 5-HT Transporter (Homo sapiens, UniProt P31645); assay: Inhibition of 3H-5-HT uptake by Jar cells possessing the human 5-HT transporter; type: cell-based; settings: Jar cells treated with staurosporine, read-out: 5HT Uptake h5HT-T IC50 (nM) (Example 20)
T1 construct: endogenous in cells; host or cells: Jar cells (human carcinoma cell line), treated with staurosporine
Experimental: [Staurosporine greatly increases the expression of the 5-HT-Transporter.] On the day of assay, vehicle, excess of fluoxetine, or test compound was added to various wells on the plate. ^3H-5-HT was then aliquoted into all wells and the samples were incubated at 37° C. for 5 minutes. The wells were then washed with ice cold 50 mM Tris HCl (pH 7.4) buffer and aspirated to remove free ^3H-5-HT. 25 μL 0.25 M NaOH was then added to each well to lyse the cells and 75 μL scintillation cocktail (Microscint™ 20) was added prior to quantitation on a Packard TopCount® machine. Tubes with vehicle represent total possible uptake, radioactivity counted in tubes with excess fluoxetine represent nonspecific binding/uptake and were subtracted from the total possible uptake to give total possible specific uptake. This nonspecific binding (usual low in number) was then subtracted from the counts obtained in wells with various test compounds (or different concentrations of a test compound) resulting in uptake in the presence of drug. Specific uptake was then expressed as a percent of control values and was analyzed using nonlinear regression analysis (Prizm) to determine IC50 values. If the compound was active in inhibiting 5-HT uptake, its counts will be close to that obtained with fluoxetine.
This blockade, in vivo, would be expected to result in an increase in extracellular 5-HT concentrations.

serotonin transporter = target: T2, serotonin transporter (Rattus norvegicus, UniProt P31652); assay: 3H-paroxetine binding to rat frontal cortical membranes, affinity for the serotonin transporter; settings: 3H-paroxetine 0.1 nM, male Sprague Dawley rat frontal cortical membranes; read-out: 5HT Uptake r5HT-T Ki (nM) (Example 18)
T2 construct: frontal cortical membranes prepared from male Sprague Dawley rats; from tissue; host or cells: rat frontal cortex membranes (male Sprague Dawley)
Experimental: A protocol similar to that used by Cheetham et al. (Neuropharmacol. 32:737-743, 1993) was used to determine the affinity of compounds for the serotonin transporter (i.e., by determining the relative ability of a compound to displace ^3H-paroxetine from male rat frontal cortical membranes). Briefly, frontal cortical membranes prepared from male Sprague Dawley rats were incubated with ^3H-paroxetine (0.1 nM) for 60 minutes at 25° C. All tubes also contained either vehicle, test compound (one to eight concentrations), or a saturating concentration of fluoxetine (10 μM) to define […]. All reactions were terminated by the addition of ice cold Tris buffer followed by rapid filtration using a Tom Tech filtration device to separate bound from free ^3H-paroxetine. Bound radioactivity was quantitated using a Wallac 1205 Beta Plate® counter. Nonlinear regression analysis was used to determine IC50 values which were converted to Ki values using the method of Cheng and Prusoff (Biochem. Pharmacol. 22: 3099-3108, 1973); […].
This affinity translates to the blockade of 5-HT uptake, i.e., the ability of a compound increase synaptic 5-HT levels and to act like an SSRI.

Human 5-HT1A Receptor [1] = target: T3, Human 5-HT1A Receptor (Homo sapiens, UniProt P08908); assay: 8-OH-DPAT binding, human 5-HT1A receptor cell line (displacement of [3H]-OHDPAT, stably transfected CHO cells); settings: [3H]-OHDPAT 1.5 nM, read-out: h5HT1A Affinity Ki (nM) (Example 17)
T3 construct: expressed in transfected cells; host or cells: CHO cells (Chinese hamster ovary), stably transfected
T3 sequence (P08908 1-422): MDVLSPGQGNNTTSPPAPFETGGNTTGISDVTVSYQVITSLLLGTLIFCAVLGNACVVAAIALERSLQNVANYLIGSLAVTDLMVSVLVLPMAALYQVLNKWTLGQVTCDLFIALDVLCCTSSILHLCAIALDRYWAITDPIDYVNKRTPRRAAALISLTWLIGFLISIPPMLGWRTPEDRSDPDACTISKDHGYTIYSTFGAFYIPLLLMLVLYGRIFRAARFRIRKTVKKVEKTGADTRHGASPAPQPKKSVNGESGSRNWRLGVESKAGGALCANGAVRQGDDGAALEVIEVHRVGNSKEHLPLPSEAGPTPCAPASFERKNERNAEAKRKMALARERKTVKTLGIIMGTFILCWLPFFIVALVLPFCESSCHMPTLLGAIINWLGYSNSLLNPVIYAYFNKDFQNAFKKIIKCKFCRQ
Experimental: Affinity for the serotonin 5-HT1A receptor was established by testing each compound's ability to displace [^3H]-OHDPAT (dipropylaminotetralin) from the 5-HT1A serotonin receptor following a modification of the procedure of Hall et al., J. Neurochem. 44:1685-1696 (1985). Stably transfected Chinese hamster ovary (CHO) cells were plated and grown in Dulbecco's Modified Eagle's Medium (DMEM) containing 10% heat inactivated fetal bovine serum (FBS) and non-essential amino acids. Cells were scraped off the plate, transferred to centrifuge tubes, and washed twice by centrifugation (2000 rpm for 10 minutes at 4° C.) in buffer (50 mM Tris, pH 7.5). The resulting pellets were aliquoted and stored at −80° C. On the day of assay, the cells were thawed on ice, and re-suspended in buffer. The binding assay was performed in a 96-well microtiter plate in a total volume of about 250 μL. Non-specific binding was determined in the presence of 10 μM 5-HT; the final radio ligand concentration was 1.5 nM. Following a 30 minute incubation at room temperature, the reaction was terminated by the addition of ice cold buffer and rapid filtration through a GF/B filter presoaked for 30 minutes in 0.5% polyethyleneimine (PEI). Compounds were initially tested in a single point assay to determine percent inhibition at 1 μM, 0.1 μM, and 0.01 μM. Subsequently, Ki values were determined for compounds defined to be active. Percent inhibition Ki was determined by RFComp (Lundon Software, Chagrin Falls, Ohio), with serotonin and 8-OH-DPAT as the reference compounds.
High affinity for the receptor is evidence of a compound's ability to directly modulate activity at the 5-HT1A receptor.

Human 5-HT1A Receptor [2] = target: T3, Human 5-HT1A Receptor; assay: cAMP radioimmunoassay (RIA) in human 5-HT1A receptor cell line, inhibition of forskolin stimulated cAMP; type: cell-based; settings: forskolin (1 μM) stimulated cAMP, stably transfected CHO cells; read-out: h5HT1A cAMP EC50 (nM) (Example 19)
Experimental: Certain effects of 5-HT (e.g., certain effects mediated by the interaction of 5-HT with the 5-HT1A receptor) are mediated by cAMP. To test the ability of compounds described herein to modulate cAMP, a radioimmunoassay (RIA) method was used. Briefly, stably transfected CHO cells were grown in DMEM containing 10% heat inactivated FBS and non-essential amino acids. The cells were plated at a density of 10^6 cells per well in a 96-well plate and incubated for 2 days in a CO2 incubator. On the second day, the medium was replaced with 0.1 ml Krebs and incubated 15 minutes at 37° C. The medium was then replaced with Krebs buffer containing 500 μM isobutylmethylxanthine (IBMX) and incubated for approximately 5 minutes at 37° C. Wells were treated with forskolin (1 μM final concentration) followed immediately by test compound (0.1 and 1 μM for the initial screen) and incubated for an additional 10 minutes at 37° C. The reaction was terminated by removal of the medium and the addition of 0.5 ml ice cold assay buffer (supplied in the RIA kit). Plates were stored at −20° C. prior to assessment of cAMP formation by RIA. The cAMP kit was obtained from Amersham (Piscataway, N.J.) and the RIA was performed as per the kit instructions. In the initial screen, percent inhibition of forskolin stimulated cAMP was measured. […] These compounds behaved as either full agonists or partial agonists. 5-HT, BMY 7378, buspirone, and 8-OH-DPAT were used as reference compounds.
All compounds tested inhibited the forskolin-stimulated increase in […].

T1 sequence (P31645 whole entry): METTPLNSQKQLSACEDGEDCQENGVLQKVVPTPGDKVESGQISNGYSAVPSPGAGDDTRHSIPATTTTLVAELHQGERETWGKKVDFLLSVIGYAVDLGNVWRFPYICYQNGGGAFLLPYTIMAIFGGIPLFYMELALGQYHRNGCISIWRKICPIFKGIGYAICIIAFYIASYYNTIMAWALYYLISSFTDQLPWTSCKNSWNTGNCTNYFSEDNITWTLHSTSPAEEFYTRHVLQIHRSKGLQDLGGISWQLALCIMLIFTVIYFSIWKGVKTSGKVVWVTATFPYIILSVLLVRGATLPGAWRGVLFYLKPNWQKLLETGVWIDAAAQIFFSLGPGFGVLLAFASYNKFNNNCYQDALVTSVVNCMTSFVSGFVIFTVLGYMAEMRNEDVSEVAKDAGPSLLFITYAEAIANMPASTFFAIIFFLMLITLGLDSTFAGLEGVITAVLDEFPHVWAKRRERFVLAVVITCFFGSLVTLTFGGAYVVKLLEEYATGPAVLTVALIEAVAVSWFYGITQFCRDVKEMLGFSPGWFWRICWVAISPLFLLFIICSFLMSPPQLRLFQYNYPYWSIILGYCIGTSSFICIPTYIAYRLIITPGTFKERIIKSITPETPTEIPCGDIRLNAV
T2 sequence (P31652 whole entry): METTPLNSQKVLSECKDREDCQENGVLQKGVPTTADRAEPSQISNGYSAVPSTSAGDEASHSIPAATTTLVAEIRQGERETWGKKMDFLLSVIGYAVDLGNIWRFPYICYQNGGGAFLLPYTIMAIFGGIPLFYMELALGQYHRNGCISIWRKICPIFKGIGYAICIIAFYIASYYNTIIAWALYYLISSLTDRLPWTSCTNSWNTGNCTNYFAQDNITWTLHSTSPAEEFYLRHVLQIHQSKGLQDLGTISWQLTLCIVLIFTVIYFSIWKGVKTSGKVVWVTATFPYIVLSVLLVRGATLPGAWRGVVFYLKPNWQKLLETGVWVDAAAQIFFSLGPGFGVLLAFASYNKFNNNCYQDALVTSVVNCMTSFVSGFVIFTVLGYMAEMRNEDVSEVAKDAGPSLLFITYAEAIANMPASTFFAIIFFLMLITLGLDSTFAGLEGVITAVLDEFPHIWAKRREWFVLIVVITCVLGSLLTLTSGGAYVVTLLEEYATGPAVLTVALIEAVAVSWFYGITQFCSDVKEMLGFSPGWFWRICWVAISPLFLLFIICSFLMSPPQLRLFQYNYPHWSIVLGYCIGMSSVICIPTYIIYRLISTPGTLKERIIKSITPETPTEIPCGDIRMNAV

SMILES | IC50 (Human 5-HT Transporter) [nM] | Ki (serotonin transporter) [nM] | Ki (Human 5-HT1A Receptor [1]) [nM] | EC50 (Human 5-HT1A Receptor [2]) [nM]
Cc1ccc2c3c(ccc2n1)OC[C@H](CNCCCN1CCCc2ccccc21)O3 [Example 1, 3-(3,4-dihydroquinolin-1(2H)-yl)-N-{[(2S)-8-methyl-2,3-dihydro[1,4]dioxino[2,3-f]quinolin-2-yl]methyl}propan-1-amine] | 150 | 13 | 2.45 | 1.58
Cc1ccc2c3c(ccc2n1)OC[C@H](CNCCCN1CCc2cc(F)ccc21)O3 [Example 2, 3-(5-fluoro-2,3-dihydro-1H-indol-1-yl)-N-{[(2S)-8-methyl-2,3-dihydro[1,4]dioxino[2,3-f]quinolin-2-yl]methyl}propan-1-amine] | – | 10.2 | 0.6 | 3.76
Cc1ccc2c3c(ccc2n1)OC[C@H](CNCCCN1CCc2ccc(F)cc21)O3 [Example 3, 3-(6-fluoro-2,3-dihydro-1H-indol-1-yl)-N-{[(2S)-8-methyl-2,3-dihydro[1,4]dioxino[2,3-f]quinolin-2-yl]methyl}propan-1-amine] | 107 | 2.8 | 0.35 | 1.88
Cc1ccc2c3c(ccc2n1)OC[C@H](CNCCCN1CCCc2ccc(F)cc21)O3 [Example 4, 3-(7-fluoro-3,4-dihydroquinolin-1(2H)-yl)-N-{[(2S)-8-methyl-2,3-dihydro[1,4]dioxino[2,3-f]quinolin-2-yl]methyl}propan-1-amine] | 32.9 | 7.7 | 0.27 | 1.57
Cc1ccc2c3c(ccc2n1)OC[C@H](CNCCCN1CCc2ccccc21)O3 [Example 5, 3-(2,3-dihydro-1H-indol-1-yl)-N-{[(2S)-8-methyl-2,3-dihydro[1,4]dioxino[2,3-f]quinolin-2-yl]methyl}propan-1-amine] | 180 | 21.1 | 0.62 | 3.44
Cc1ccc2c3c(ccc2n1)OC[C@H](CNCCCN1CCOc2ccccc21)O3 [Example 6, 3-(2,3-dihydro-4H-1,4-benzoxazin-4-yl)-N-{[(2S)-8-methyl-2,3-dihydro[1,4]dioxino[2,3-f]quinolin-2-yl]methyl}propan-1-amine] | – | 40.8 | 2.58 | 0.77
Cc1ccc2c3c(ccc2n1)OC[C@H](CNCCCN1CCCc2cc(F)c(F)cc21)O3 [Example 7, 3-(6,7-difluoro-3,4-dihydroquinolin-1(2H)-yl)-N-{[(2S)-8-methyl-2,3-dihydro[1,4]dioxino[2,3-f]quinolin-2-yl]methyl}propan-1-amine] | 77 | 12.3 | 3.73 | 1.63
Cc1ccc2c3c(ccc2n1)OC[C@H](CNCCCN1CCCc2cc(F)cc(F)c21)O3 [Example 9, 3-(6,8-difluoro-3,4-dihydroquinolin-1(2H)-yl)-N-{[(2S)-8-methyl-2,3-dihydro[1,4]dioxino[2,3-f]quinolin-2-yl]methyl}propan-1-amine] | – | 27 | 1.41 | 1.18
Cc1ccc2c3c(ccc2n1)OC[C@H](CNCCCN1CCCc2cc(F)c(Cl)cc21)O3 [Example 10, 3-(7-chloro-6-fluoro-3,4-dihydroquinolin-1(2H)-yl)-N-{[(2S)-8-methyl-2,3-dihydro[1,4]dioxino[2,3-f]quinolin-2-yl]methyl}propan-1-amine] | – | 116 | 3.22 | 1.95
Cc1ccc2c3c(ccc2n1)OC[C@H](CNCCCN1CCCCc2ccccc21)O3 [Example 12, N-{[(2S)-8-methyl-2,3-dihydro[1,4]dioxino[2,3-f]quinolin-2-yl]methyl}-3-(2,3,4,5-tetrahydro-1H-1-benzazepin-1-yl)propan-1-amine] | – | 36.2 | 0.79 | 3.06
Cc1ccc2c3c(ccc2n1)OC[C@H](CNCCCN(C)c1ccccc1Cl)O3 [Example 13, N-(2-chlorophenyl)-N-methyl-N′-{[(2S)-8-methyl-2,3-dihydro[1,4]dioxino[2,3-f]quinolin-2-yl]methyl}propane-1,3-diamine] | – | 3.5 | 0.57 | 2.49
